Values after ≈ are worked out from the molar mass of the structure shown. Like-named read-outs stand apart in the source and are kept apart here.

What all share (assay): Antibacterial activity (MIC), agar dilution
What all share (type): cell-based
A general note: In agar dilution the substance is mixed into plates at graded concentrations.

One assay concerns Kl. pneumoniae Y-4*. The note with it: Klebsiella pneumoniae, 20 h, Kl. pneumoniae Y-4, penicillinase-producing; 10^6 cells per ml; read-out: MIC. From the text: (§1) The amount of bacteria inoculated was 10^4 cells per plate (10^6 cells per ml).
(§2) * Penicillinase-producing bacteria

A further assay has as its system Ps. aeruginosa GN3379*. The note with it: Pseudomonas aeruginosa, Ps. aeruginosa GN3379, penicillinase-producing, 10^6 cells per ml.
Text: as §1, §2

The subject of a further assay is St. aureus F-137*. The note with it: Staphylococcus aureus, 20 h, St. aureus F-137, penicillinase-producing; 10^6 cells per ml; read-out: MIC.
Text: as §1, §2

The test system of a further assay is E. coli TK-3*. The note with it: Escherichia coli, 20 h, E. coli TK-3, penicillinase-producing; 10^6 cells per ml; read-out: MIC.
Text: as §1, §2

Another assay has as its system Pro. vulgaris GN76**. The note with it: Proteus vulgaris.
Text: as §1
(§3) ** Cephalospolinase-producing bacteria

The next assay concerns E. coli GN5482**. The note with it: Escherichia coli, 20 h; E. coli GN5482, cephalospolinase-producing; 10^6 cells per ml; read-out: MIC.
Text: as §1, §3

For another assay, the system named is Ps. aeruginosa GN918**. The note with it: Pseudomonas aeruginosa, Ps. aeruginosa GN918, cephalospolinase-producing, 10^6 cells per ml.
Text: as §1, §3

In the next assay the test system is Pro. vulgaris GN3027. The note with it: Proteus vulgaris, GN3027, 20 h, Pro. vulgaris GN3027; 10^6 cells per ml; 37° C., 20 hours; read-out: MIC.
Text: as §1

The test system of a further assay is Kl. pneumoniae Y-50. The note with it: Klebsiella pneumoniae, Y50, 20 h, 10^6 cells per ml, 37° C., read-out: MIC.
Text: as §1

Another assay has as its system Ent. cloacae IID977. The note with it: Enterobacter cloacae, IID977, 20 h, Ent. cloacae IID977; 10^6 cells per ml; 37° C., 20 hours; read-out: MIC.
Text: as §1

The next assay deals with Ps. aeruginosa IFO3445. The note with it: Pseudomonas aeruginosa; Ps. aeruginosa IFO3445; 10^6 cells per ml; 37° C., 20 hours; read-out: MIC.
Text: as §1

For another assay, the system named is Pro. morganii T-216. The note with it: Morganella morganii, T216, 10^6 cells per ml, 37° C., 20 hours, read-out: MIC.
Text: as §1

The test system of another assay is St. aureus FDA209P. The note with it: Staphylococcus aureus, FDA209P, 20 h, St. aureus FDA209P; 10^6 cells per ml; 37° C., 20 hours; read-out: MIC.
Text: as §1

In the next assay the test system is Pro. mirabilis T-111. The note with it: Proteus mirabilis, 37° C.
Text: as §1

Another assay concerns Ps. aeruginosa S-68. The note with it: Pseudomonas aeruginosa.
Text: as §1

The test system of another assay is E. coli NIHJ JC-2. The note with it: Escherichia coli, NIHJJC2, 20 h, E. coli NIHJ JC-2; 10^6 cells per ml; 37° C., 20 hours; read-out: MIC.
Text: as §1

In the next assay the test system is E. coli TK-111. The note with it: Escherichia coli, TK111, 20 h, E. coli TK-111; 10^6 cells per ml; 37° C., 20 hours; read-out: MIC.
Text: as §1

In another assay the test system is Aci. antitratus A-6. The note with it: 20 h, Aci. antitratus A-6; 10^6 cells per ml; 37° C., 20 hours; read-out: MIC.
Text: as §1

The subject of another assay is Kl. pneumoniae Y-41. The note with it: Klebsiella pneumoniae, Y41, 10^6 cells per ml, 37° C., 20 hours, read-out: MIC.
Text: as §1

The mark [1] stands for this setting: 20 h, Pro. vulgaris GN76, cephalospolinase-producing, 10^6 cells per ml, read-out: MIC.
[2] abbreviates: S68, Ps. aeruginosa S-68, 10^6 cells per ml, 37° C., 20 hours, read-out: MIC.

As a reminder, the MIC is the lowest concentration that inhibits growth of the organism. Regarding `COc1ccc(-c2ccc(-c3cc(=O)c(C(=O)O)cn3-c3ccc(O)cc3)cc2)s1`, the MIC in the assay with Kl. pneumoniae Y-4* was 1.56 µg/mL (≈ 3.72 µM); in the assay with Ps. aeruginosa GN3379* (20 h, read-out: MIC), 3.13 µg/mL (≈ 7.46 µM); with St. aureus F-137* it was at most 0.05 µg/mL; in the assay on E. coli TK-3*, 0.39 µg/mL (≈ 0.93 µM); in the assay with Pro. vulgaris GN76** (setting [1]), 0.39 µg/mL (≈ 0.93 µM); with E. coli GN5482** it was at most 0.05 µg/mL. In addition, the MIC in the assay with Ps. aeruginosa GN918** (20 h, read-out: MIC) turned out to be 0.78 µg/mL (≈ 1.86 µM); in the assay on Pro. vulgaris GN3027, 0.2 µg/mL (≈ 0.477 µM); with Kl. pneumoniae Y-50, 0.78 µg/mL (≈ 1.86 µM); in the assay on Ent. cloacae IID977, 0.78 µg/mL (≈ 1.86 µM); in the assay on Ps. aeruginosa IFO3445, 6.25 µg/mL (≈ 14.9 µM); in the assay with Pro. morganii T-216, 0.39 µg/mL (≈ 0.93 µM). For the same compound, the MIC with St. aureus FDA209P was at most 0.05 µg/mL; with Pro. mirabilis T-111 (T111, 10^6 cells per ml, 20 hours, read-out: MIC), 0.78 µg/mL (≈ 1.86 µM); with Ps. aeruginosa S-68 (setting [2]) it was 3.13 µg/mL (≈ 7.46 µM); in the assay on E. coli NIHJ JC-2, 0.39 µg/mL (≈ 0.93 µM); in the assay on E. coli TK-111 it was 0.1 µg/mL (≈ 0.238 µM); in the assay on Aci. antitratus A-6 it was 0.1 µg/mL (≈ 0.238 µM). Besides, the MIC in the assay on Kl. pneumoniae Y-41 stood at 1.56 µg/mL (≈ 3.72 µM).

Turning to `CN(C)c1ccc(-c2cc(=O)c(C(=O)O)cn2-c2ccc(F)cc2)cc1`, the MIC in the assay with Kl. pneumoniae Y-4* came to 12.5 µg/mL (≈ 35.5 µM); against Ps. aeruginosa GN3379* (GN3379, 20 h), 12.5 µg/mL (≈ 35.5 µM); in the assay with St. aureus F-137*, 0.78 µg/mL (≈ 2.21 µM); with E. coli TK-3*, 3.13 µg/mL (≈ 8.88 µM); in the assay with Pro. vulgaris GN76** (GN76, 20 h), 1.56 µg/mL (≈ 4.43 µM); with E. coli GN5482** it was 0.2 µg/mL (≈ 0.568 µM). Besides, the MIC worked out at 12.5 µg/mL (≈ 35.5 µM) in the assay on Ps. aeruginosa GN918** (GN918, 20 h); 0.39 µg/mL (≈ 1.11 µM) with Pro. vulgaris GN3027; 1.56 µg/mL (≈ 4.43 µM) in the assay with Kl. pneumoniae Y-50; 3.13 µg/mL (≈ 8.88 µM) with Ent. cloacae IID977; 25 µg/mL (≈ 70.9 µM) with Ps. aeruginosa IFO3445; 3.13 µg/mL (≈ 8.88 µM) in the assay on Pro. morganii T-216. Also, the minimal inhibitory concentration (MIC) with St. aureus FDA209P came to 0.78 µg/mL (≈ 2.21 µM); with Pro. mirabilis T-111 (T111, 20 h, 10^6 cells per ml), 6.25 µg/mL (≈ 17.7 µM); with Ps. aeruginosa S-68 (S68, 20 h) it was 12.5 µg/mL (≈ 35.5 µM); in the assay with E. coli NIHJ JC-2, 0.78 µg/mL (≈ 2.21 µM); with E. coli TK-111 it was 0.39 µg/mL (≈ 1.11 µM); in the assay on Aci. antitratus A-6 it was 0.39 µg/mL (≈ 1.11 µM). Also, the MIC with Kl. pneumoniae Y-41 amounted to 6.25 µg/mL (≈ 17.7 µM).

For the compound `O=C(O)c1cn(-c2ccc(O)cc2)c(-c2ccc(-c3ccc(Cl)s3)cc2)cc1=O`, the minimum inhibitory concentration (MIC) with Kl. pneumoniae Y-4* is 1.56 µg/mL (≈ 3.68 µM); in the assay with Ps. aeruginosa GN3379* (20 h, read-out: MIC) it was 3.13 µg/mL (≈ 7.38 µM); in the assay on St. aureus F-137*, at most 0.05 µg/mL; in the assay on E. coli TK-3*, 0.78 µg/mL (≈ 1.84 µM); in the assay with Pro. vulgaris GN76** (setting [1]) it was 0.39 µg/mL (≈ 0.92 µM); with E. coli GN5482** it was at most 0.05 µg/mL. Further, the minimum inhibitory concentration (MIC) is 0.78 µg/mL (≈ 1.84 µM) with Ps. aeruginosa GN918** (20 h, read-out: MIC); at most 0.1 µg/mL in the assay on Pro. vulgaris GN3027; 0.39 µg/mL (≈ 0.92 µM) in the assay on Kl. pneumoniae Y-50; 0.78 µg/mL (≈ 1.84 µM) in the assay with Ent. cloacae IID977; 3.13 µg/mL (≈ 7.38 µM) in the assay with Ps. aeruginosa IFO3445; 0.78 µg/mL (≈ 1.84 µM) in the assay with Pro. morganii T-216. The MIC was at most 0.05 µg/mL in the assay on St. aureus FDA209P; 1.56 µg/mL (≈ 3.68 µM) in the assay on Pro. mirabilis T-111 (T111, 20 h, 10^6 cells per ml); 3.13 µg/mL (≈ 7.38 µM) in the assay with Ps. aeruginosa S-68 (setting [2]); 0.2 µg/mL (≈ 0.472 µM) with E. coli NIHJ JC-2; 0.1 µg/mL (≈ 0.236 µM) with E. coli TK-111; 0.1 µg/mL (≈ 0.236 µM) with Aci. antitratus A-6. Also, the MIC with Kl. pneumoniae Y-41 was 1.56 µg/mL (≈ 3.68 µM).

For the compound `Cn1ccc2cc(-c3cc(=O)c(C(=O)O)cn3-c3ccc(F)cc3)ccc21`, the MIC is 3.13 µg/mL (≈ 8.64 µM) in the assay on Kl. pneumoniae Y-4*; 25 µg/mL (≈ 69 µM) in the assay with Ps. aeruginosa GN3379* (20 h, read-out: MIC); 0.39 µg/mL (≈ 1.08 µM) with St. aureus F-137*; 1.56 µg/mL (≈ 4.31 µM) with E. coli TK-3*; 0.78 µg/mL (≈ 2.15 µM) with Pro. vulgaris GN76** (setting [1]); at most 0.05 µg/mL with E. coli GN5482**. Also, the MIC in the assay with Ps. aeruginosa GN918** (20 h, read-out: MIC) was found to be 0.78 µg/mL (≈ 2.15 µM); in the assay on Pro. vulgaris GN3027 it was 0.2 µg/mL (≈ 0.552 µM); with Kl. pneumoniae Y-50, 0.78 µg/mL (≈ 2.15 µM); in the assay on Ent. cloacae IID977 it was 1.56 µg/mL (≈ 4.31 µM); in the assay with Ps. aeruginosa IFO3445, 12.5 µg/mL (≈ 34.5 µM); with Pro. morganii T-216 it was 1.56 µg/mL (≈ 4.31 µM). In addition, the minimum inhibitory concentration (MIC) in the assay on St. aureus FDA209P was found to be 0.39 µg/mL (≈ 1.08 µM); in the assay on Pro. mirabilis T-111 (T111, 20 h, 10^6 cells per ml), 3.13 µg/mL (≈ 8.64 µM); in the assay with Ps. aeruginosa S-68 (setting [2]), 12.5 µg/mL (≈ 34.5 µM); with E. coli NIHJ JC-2 it was 0.39 µg/mL (≈ 1.08 µM); in the assay with E. coli TK-111, 0.1 µg/mL (≈ 0.276 µM); with Aci. antitratus A-6, 0.1 µg/mL (≈ 0.276 µM). In addition, the MIC with Kl. pneumoniae Y-41 is 3.13 µg/mL (≈ 8.64 µM).

The values above are taken from patent US4698352A, “4-oxo-1,4-dihydronicotinic acid derivatives, salts thereof, and antibacterial agents containing the same” (Toyama Chemical Co., Ltd., priority 1982, dated 1987).
